In patent US10011813B2, “Methane oxidation methods and compositions” (California Institute of Technology, priority 2015, dated 2018):
Converted amounts (≈) assume the structure as drawn. “And” between values parts separate entries of the source, which are not always exact repeats. Equal values may be shown once. Marks after values point to notes of the source that are not given here.

Legend:
[1] = test system: methane seep sediment (ANME archaea); test: AOM rate measurement via 13C-methane (newly formed DIC) in methane seep sediment incubations; format: cell-based, ANME-2a and ANME-2c
From the text: General description of methane oxidation measurements via ^13C-methane. Methane oxidation was quantified by determining the production of inorganic carbon (“CO2”). Accurate quantification of the concentration of inorganic carbon formed from methane oxidation is challenging due to 4 main reasons:
A defined amount of added DIC in artificial, buffered seawater was used with a low calcium concentration to prevent carbonate precipitation (see medium composition). As ^13CH4 was the only ^13C-enriched carbon source added, the newly formed ^13C-DIC must be derived from methane. For low methane oxidation rates (less than ca. 5% relative to sulfate as the oxidant or electron acceptor), however, enzyme-catalyzed isotope exchange between methane and DIC, needs to be taken into account, because it contributes to ^13C enrichment of the DIC without net methane oxidation, resulting in an overestimation of net methane oxidation. […] Details of both methods, the ^13CH4 experiments and the standard addition are described herein.
Incubation conditions for AOM rate measurement. Each incubation vial was set up with 1.0 cm^3 wet sediment (wet sediment=volume of sediment after allowing the sediment slurry settle for 48 h) in total slurry volume of […] as follows: Sterile serum vials were closed with butyl rubber stoppers (volume=12.9 ml after closing) and flushed with methane. 1.0 mL ^13CH4 (99% ^13C, Cambridge Isotope Laboratories, containing 0.05 vol % ^13CO2 as an impurity) was introduced anaerobically. 2.0 mL of artificial, anaerobic seawater containing 2.5× the target concentration of the corresponding electron acceptor was injected into the serum vial cooled on ice. For AQDS and 1,5-AQDS, this was a suspension corresponding to 25 mM (see TABLE 3).
The 1 L pyrex bottle with the sediment in the sulfate-free medium (1 part wet sediment in 3 parts of slurry volume) was vigorously shaken each time and 3.0 mL of slurry immediately removed and injected into the individual serum bottles. Each stoppered serum vial was supplemented with unlabeled methane (0.250 MPa overpressure: pressure gauge SSI Technologies, Inc., Media Gauge™) shaken and stored inverted at 4° C. (final headspace: 0.35 MPa methane, with ca. 4% ^13CH4). The exact fractional abundance of ^13C in the methane was quantified via ^1H-NMR spectroscopy for individual incubations.
AOM rate measurements (quantification of newly formed DIC based on ^13CH4). For ^13C-DIC analysis, 0.25 mL of the medium above the settled sediment in the microcosm was sampled with a disposable needle and syringe at each time point (same intervals for all experiments) and centrifuged (16000 rcf, 5 min). The supernatant was transferred into 0.6 mL eppendorf tubes, flash frozen in N2 (l), and stored at −20° C. until measurement. 150 μL of the thawed supernatant was then added to He-flushed vials containing 100 μL H3PO4 (85%). The resulting CO2 was analyzed for the isotopic enrichment (^13F(tn)) on a GC-IR-MS GasBench II (Thermo Scientific). The amount of DIC newly formed (Δ[DIC](tn), see FIG. 6B) was calculated from the measured ^13F (fractional abundance of ^13C), neglecting isotope effects on AOM according to Equation (1): Δ[DIC](tn)=[DIC](t0)*(^13F(tn)−^13F(t0))/(^13F(CH4)−^13F(tn)) (EQ. 1)

[2] = Quantification of AQDS solubility in the incubation medium; format: physicochemical
Experimental: Quantification of AQDS solubility in the incubation medium. Different regioisomers of AQDS (1,5-AQDS, 2,6-AQDS and 2,7-AQDS) were separately added to the modified artificial seawater described above, to a targeted final concentration of 25 mM. The suspensions were ultra-sonicated at room temperature to dissolve as much of the AQDS as possible. The tubes were kept at 4° C. or at 22.5° C. overnight. The tubes were centrifuged at 4° C. or 22.5° C. (16000 rcf, 30 min). The supernatant (300 μL) was mixed with 300 μL acetate (10.0 mM) as the internal standard and 100 μL deuterated water (99.9% D, Cambridge Isotope Laboratories) was added. The concentration of AQDS was obtained from integration of the ^1H-NMR spectra by comparison relative to the acetate standard.

[3] = test system: ANME-SRB consortia; test: FISH-nanoSIMS 15N incorporation (anabolic activity) of ANME-SRB consortia; format: cell-based, ANME-2c archaea and Desulfobacteraceae
Experimental: Incubations for FISH-nanoSIMS and RNA analysis. For AOM incubations with sulfate or AQDS that were used for nanoSIMS (FIG. 7 and FIG. 8A) and RNA analysis (FIG. 6), incubations experiments were set up following the AOM-rate measurements described above (initially containing 1.0 mM ammonium without ^15N label). Methane oxidation rates were tracked in these incubations via the ^13C label. After 11 days, ca. 3.5 mL of supernatant remained in the serum bottles to which 3.0 mL artificial seawater without ammonium containing either 25 mM AQDS, 28 mM sulfate, or no oxidant or electron acceptor was added. Next, 0.1 mL ^15NH4^+ (100 mM) was injected to yield about 2.0 mM ammonium with ca. 75% ^15N. Methane oxidation was monitored. After additional 8 days, the medium of the AQDS incubations was exchanged by 5.0 mL new medium containing 25 mM AQDS and 2.0 mM ^15NH4^+. Now the AQDS incubations contained ca. 95% ^15NH4^+ in the ammonium pool. The cultures were incubated for additional 10 days before harvest. Total incubation time with labeled ammonium: 18 days. Average labeling strength: ca. 75% for sulfate and no oxidant or electron acceptor control; ca. 86% for the AQDS incubations.
For the second independent set of experiments with iron citrate, humic acids and sulfate (FIG. 8B), the medium contained 1.0 mM ammonium with ca. 40% ^15N label throughout the incubation period. These experiments were carried out from identical incubations that were for the AOM rate measurements (highlighted in Table 4). In regards to Table 4, the percentage AOM rates are reported relative to sulfate-coupled AOM (1.50 μmol cm^−3 day^−1). Top: Summary of compounds described in FIG. 1B; Bottom: Oxidants or electron acceptors resulting in an AOM rate less than 0.10 μmol […] day^−1 (<7% rel. to sulfate as oxidant or electron acceptor).
Sampling for FISH-nanoSIMS and RNA. After an 18-day incubation in the presence of ^15NH4^+, each incubation was shaken to suspend the sediment and 1.0 mL sediment slurry was sampled using a disposable sterile needle and syringe (ca. 0.3 mL wet sediment). […]
Sample preparation for aggregate embedding, sectioning, FISH, and nanoSIMS. […] Sections of ca. 1 μm thickness were cut and stretched on a water droplet on a polylysine coated slide with teflon wells (Tekdon Inc) and analyzed by fluorescence in situ hybridization (FISH). […]
FISH conditions and probes. The FISH hybridization on thin sections of resin embedded microbial aggregates followed the recently optimized protocol described in S. E. McGlynn et al. The phylogenetic identity of microorganisms in the thin sections were determined using conventional FISH using oligonucleotide probes fluorescently labeled on both the 5′ and 3′ ends (dual labeled) as outlined herein. […]

[4] = test system: methane seep sediment (ANME archaea); test: Quantification of sulfide (methylene blue method) in AOM incubations; format: cell-based, ANME-2a and ANME-2c; settings: Sulfate 28 mM, after 21-day incubation
Experimental: Quantification of sulfide. Supernatant was removed via syringe and centrifuged in 0.6 mL Eppendorf tubes (16000 rcf, 30 s). 20 μL of the clear supernatant was removed and added to 400 μL Zn(OAc)2 (500 mM) to preserve the sulfide. Analysis was carried out in triplicate via the methylene blue method described in J. D. Clin (Waters. Limnol. Oceanogr. 14:454 (1969)), using standards of 0.1, 0.25, 0.5, 1, 2, 5, 10 and 25 mM sulfide added to Zn(OAc)2 (500 mM) in the same ratios as for the samples. Quantification was carried out in a plate reader (TECAN Sunrise™) by monitoring the absorbance at 670 nm.

1-Hydroxynaphthoquinone
Rate relative to AOM with sulfate ([1]; 10 mM, 1 mM, no MoO4^2−): ≤1.5 ^† %

O=C1c2cccc(S(=O)(=O)O)c2C(=O)c2cccc(S(=O)(=O)O)c21 [1,5-AQDS, 9,10-anthraquinone-1,5-disulfonate]
Rate relative to AOM with sulfate ([1]; 10 mM, no MoO4^2−): 38%
Solubility in the incubation medium ([2]; 4° C.): 2.5 mM (≈ 921 µg/mL)

O=C1c2ccc(S(=O)(=O)O)cc2C(=O)c2cc(S(=O)(=O)O)ccc21 [2,7-AQDS, 9,10-anthraquinone-2,7-disulfonate]
Rate relative to AOM with sulfate ([1]; 10 mM, no MoO4^2−): 97%
Solubility in the incubation medium ([2]; 4° C.): >25 mM
Solubility in the incubation medium ([2]; 22.5° C.): >25 mM

O=C([O-])CN(CCN(CC(=O)[O-])CC(=O)[O-])CC(=O)[O-].[Fe+3] [Fe(III)-EDTA]
Rate relative to AOM with sulfate ([1]; 1.6 mM, no MoO4^2−): 8%
Rate relative to AOM with sulfate ([1]; 10 mM, no MoO4^2−): ≤1.5 ^† %

O=C([O-])CN(CC(=O)[O-])CC(=O)[O-].[Fe+3] [Fe(III)-NTA]
Rate relative to AOM with sulfate ([1]; 1 mM, no MoO4^2−): 2.5%
Rate relative to AOM with sulfate ([1]; 10 mM, no MoO4^2−): ≤1.5 ^† %

O=C([O-])CC(O)(CC(=O)[O-])C(=O)[O-].[Fe+3] [Fe(III)-citrate]
Rate relative to AOM with sulfate ([1]; 2 mM, with 25 mM MoO4^2−): 7%
Rate relative to AOM with sulfate ([1]; 5 mM, with 25 mM MoO4^2−): 37%
Rate relative to AOM with sulfate ([1]; 10 mM, no MoO4^2−): 53%
Rate relative to AOM with sulfate ([1]; 10 mM, with 25 mM MoO4^2−): 46%
Rate relative to AOM with sulfate ([1]; 25 mM, with 25 mM MoO4^2−): 2.5%
AOM consortia anabolically active (>10% archaeal activity relative to sulfate treatments, or >0.8 at % 15N) ([3]; second set of experiments, ca. 40% 15N): 14 out of 31

O=C1C(=C2Nc3c(cc(S(=O)(=O)O)cc3S(=O)(=O)O)C2=O)Nc2c1cc(S(=O)(=O)O)cc2S(=O)(=O)O [Indigo tetrasulfonate]
Rate relative to AOM with sulfate ([1]; 10 mM, 1 mM, no MoO4^2−): ≤1.5 ^† %

CN(C)c1ccc2nc3ccc(=[N+](C)C)cc-3sc2c1 [Methylene blue]
Rate relative to AOM with sulfate ([1]; 1 mM, no MoO4^2−): ≤1.5 ^† %

COS(=O)(=O)[O-].C[n+]1c2ccccc2nc2ccccc21 [Phenazine methosulfate]
Rate relative to AOM with sulfate ([1]; 1 mM, no MoO4^2−): ≤1.5 ^† %

Nc1ccc2nc3ccc(N)cc3[n+](-c3ccccc3)c2c1 [Phenosafranine]
Rate relative to AOM with sulfate ([1]; 10 mM, 1.6 mM, no MoO4^2−): ≤1.5 ^† %

O=c1ccc2[n+]([O-])c3ccc(O)cc3oc-2c1 [Resazurin]
Rate relative to AOM with sulfate ([1]; 10 mM, no MoO4^2−): ≤1.5 ^† %

Cc1cc2nc3cc(C)c(N)cc3[n+](-c3ccccc3)c2cc1N.[Cl-] [Safranine T]
Rate relative to AOM with sulfate ([1]; 10 mM, 1.6 mM, no MoO4^2−): ≤1.5 ^† %

O=S(=O)(O)O [Sulfate]
Rate relative to AOM with sulfate ([1]; 28 mM, no MoO4^2−, 100% = 1.50 μmol cm^−3 day^−1): 100%
Rate relative to AOM with sulfate ([1]; 28 mM, with 25 mM MoO4^2−): 20%
DIC formed ([1]; Sulfate 28 mM, after 21-day incubation): 6.44 mM and 7.77 mM and 7.51 mM and 7.29 mM
sulfate-coupled AOM rate ([1]; reference rate (100%) of Table 4): 1.50 μmol cm^−3 day^−1
AOM rate ([1]; sediment characterization): 1.5 μmol methane (cm^3 wet sediment)^−1 d^−1
sulfide (sum of HS^− and H2S), final concentration [4]: 5.9 mM and 6.5 mM and 7.0 mM and 6.1 mM
doubling time of ANME cells based on average 15N-incorporation ([3]; 18 days with 15NH4+): 2.9 months

[Na+].[Na+].[O]=[Mo](=[O])([O-])[O-] [molybdate, sodium molybdate]
effect on methane oxidation in sulfate-free incubations containing AQDS ([1]; 25 mM molybdate, AQDS 10 mM): no inhibitory response
effect on rates of sulfate-coupled AOM relative to controls ([1]; 25 mM molybdate, sulfate 28 mM): decreased by approximately fivefold
